In article PMC10669572, “Norlobaridone Inhibits Quorum Sensing-Dependent Biofilm Formation and Some Virulence Factors in Pseudomonas aeruginosa by Disrupting Its Transcriptional Activator Protein LasR Dimerization” (Biomolecules, 2023):
In brackets after ≈: the same amount, converted by molar mass.

B1: LasR (Pseudomonas aeruginosa transcriptional activator protein, LuxR-type quorum sensing receptor) (natural protein)
chain: MALVDGFLELERSSGKLEWSAILQKMASDLGFSKILFGLLPKDSQDYENAFIVGNYPAAWREHYDRAGYARVDPTVSHCTQSVLPIFWEPSIYQTRKQHEFFEEASAAGLVYGLTMPLHGARGELGALSLSVEAENRAEANRFMESVLPTLWMLKDYALQSGAGLAFEHPVSKPVVLTSREKEVLQWCAIGKTSWEISVICNCSEANVNFHMGNIRRKFGVTSRRVAAIMAVNLGLITL
notes: predicted molecular weight of the single chain 26.62 kD; Produced and kept with a small-molecule ligand: odDHL (dimer) or norlobaridone, NBD (monomer); also called LasR-odDHL; NBD-LasR; source: E. coli BL21 (pET23b, 1 mM IPTG, 18 °C overnight) in the presence of 100 μM OdDHL or 100 μM NBD; purified (heparin column, MonoQ, S200 size exclusion)

Tests used:
P. aeruginosa [1] = assay: microbe, parasite or virus in culture; set-up: antibacterial MIC determination; settings: Pseudomonas aeruginosa
Protocol: At this dose, NBD had no effect on the growth of P. aeruginosa, as shown by the fact that the growth curve of the bacteria in the presence of 5 μg/mL NBD was identical to the curve in the absence of the treatment (Figure S1).

P. aeruginosa [2] = assay: microbe, parasite or virus in culture; set-up: crystal violet biofilm formation assay in 96-well plates, OD570; settings: Pseudomonas aeruginosa, 24 h, read-out: % P. aeruginosa biofilm inhibition
Protocol: In 96-well polystyrene plates, the influence of NBD on biofilm growth was studied. The experiment was carried out in the manner reported by Stepanovi et al., with a few minor changes. P. aeruginosa cells were cultured in LB medium, vortexed, then diluted 1:100 in new LB media to a final concentration of 1.5 × 10^8 CFU/mL (0.5 McFarland) for biofilm development. Cells were then cultured for 24 h at 37 °C with or without NBD. Following that, non-adherent bacteria were washed away in sterile phosphate-buffered saline (PBS), and adherent bacteria were stained for 15 min with a 1% crystal violet solution. Water was used to clean the wells in order to remove any remaining stains. The absorbance of the crystal violet solution at OD570 was determined by spectrophotometric analysis. Wells with phosphate buffer-enriched media were utilized as negative controls. As a positive control, azithromycin (AZM) was used, which inhibits biofilm formation at sub-inhibitory concentrations. […] At this dose, NBD had no effect on the growth of P. aeruginosa, as shown by the fact that the growth curve of the bacteria in the presence of 5 μg/mL NBD was identical to the curve in the absence of the treatment (Figure S1).

E. coli = assay: microbe, parasite or virus in culture; set-up: antibacterial MIC determination; settings: Escherichia coli
[3] = biological target: the molecule itself; assay: AUC; sedimentation velocity, 141,900 x g, 20 °C, 20 mM Hepes pH 7.5, 100 mM NaCl; LasR 0.5 and 1 mg/mL produced with and in the presence of 100 μM OdDHL; c(S) and c(M) distributions in SEDFIT

Molecule	MIC (P. aeruginosa [1]) [µg/mL]	inhibition at 5 µg/mL (P. aeruginosa [2]) [%]	MIC (E. coli) [µg/mL]	stoichiometry N [3]
O=C(O)c1ccc(O)cc1 [P-hydroxy benzoic acid]	128 (≈ 927 µM)	12.9	> 256	–
CCCCCc1ccccc1O [Pentylphenol]	256 (≈ 1560 µM)	11.4	> 256	–
CC(=O)c1c(O)c(C)c(O)c(Cc2c(O)c3c(c(C(=O)/C=C/c4ccccc4)c2O)OC(C)(C)C=C3)c1O [Rottlerin]	> 256	7.9	> 256	–
Oc1cc(O)cc(O)c1 [Phloroglucinol]	64 (≈ 507 µM)	31.1	64 (≈ 507 µM)	–
CCCCCc1cc(O)cc2c1Oc1cc(O)cc(C(=O)CCCC)c1C(=O)O2 [NBD, norlobaridone]	128 (≈ 321 µM)	64.6	128 (≈ 321 µM)	–
O=C(O)c1cc(O)c(O)c(O)c1 [Gallic acid]	> 256	21.4	> 256	–
Oc1cccc(O)c1 [Resorcinol]	128 (≈ 1160 µM)	27.7	128 (≈ 1160 µM)	–
O=c1oc2c(O)c(O)cc3c(=O)oc4c(O)c(O)cc1c4c23 [Ellagic acid]	128 (≈ 424 µM)	22.8	128 (≈ 424 µM)	–
B1	–	–	–	2
